Assays:
[1] = test system: innate peptide mRNA (SLPI, S100A7, Elafin, HBD1-4, HD-5, HD-6) in CTRL and E6E7 cells; assay: RT-qPCR of innate peptide expression in CTRL and E6E7 keratinocytes, Control / LPS / TNF alpha (Fig 2D); format: cell-based, human;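 further: mRNA level normalized to HPRT mRNA of the same sample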
[2] = test system: defensin/elafin mRNA in immortalized human keratinocytes (HaCaT cells); assay: RT-qPCR of innate peptide expression in non-infected immortalized keratinocytes (TNFα/LPS, siRNA, inhibitors); format: cell-based; settings: for Elafin expression / HBD2 expression / HBD3 expression / HBD4 expression: siGL3, TNF alpha +

TNFα
Elafin expression ([1]; CTRL cells, replicate 1): 5.073 | HBD1 expression ([1]; CTRL cells, replicate 1): 0.2367 | HBD2 expression ([1]; CTRL cells, replicate 1): 3.658 | HBD3 expression ([1]; CTRL cells, replicate 1): 3.171 | HBD4 expression ([1]; CTRL cells, replicate 1): 2.287 | HD-5 expression ([1]; CTRL cells, replicate 1): 0.3567 | HD-6 expression ([1]; CTRL cells, replicate 1): 1.388 | S100A7 expression ([1]; CTRL cells, replicate 1): 0.722 | SLPI expression ([1]; CTRL cells, replicate 1): 0.646 | Elafin expression ([1]; CTRL cells, replicate 2): 4.065 | HBD1 expression ([1]; CTRL cells, replicate 2): 1.168 | HBD2 expression ([1]; CTRL cells, replicate 2): 4.597 | HBD3 expression ([1]; CTRL cells, replicate 2): 4.307 | HBD4 expression ([1]; CTRL cells, replicate 2): 2.172 | HD-5 expression ([1]; CTRL cells, replicate 2): 2.274 | HD-6 expression ([1]; CTRL cells, replicate 2): 2.604 | S100A7 expression ([1]; CTRL cells, replicate 2): 0.3271 | SLPI expression ([1]; CTRL cells, replicate 2): 2.0642 | Elafin expression ([1]; CTRL cells, replicate 3): 7.706 | HBD1 expression ([1]; CTRL cells, replicate 3): 0.2415 | HBD2 expression ([1]; CTRL cells, replicate 3): 6.118 | HBD3 expression ([1]; CTRL cells, replicate 3): 2.998 | HBD4 expression ([1]; CTRL cells, replicate 3): 5.397 | HD-5 expression ([1]; CTRL cells, replicate 3): 2.494 | HD-6 expression ([1]; CTRL cells, replicate 3): 1.116 | S100A7 expression ([1]; CTRL cells, replicate 3): 1.785 | SLPI expression ([1]; CTRL cells, replicate 3): 1.2988 | Elafin expression ([1]; CTRL cells, replicate 4): 14.6325 | HBD1 expression ([1]; CTRL cells, replicate 4): 1.1843 | HBD2 expression ([1]; CTRL cells, replicate 4): 11.5149 | HBD3 expression ([1]; CTRL cells, replicate 4): 3.1783 | HBD4 expression ([1]; CTRL cells, replicate 4): 3.11 | HD-5 expression ([1]; CTRL cells, replicate 4): 8.229 | HD-6 expression ([1]; CTRL cells, replicate 4): 1.904 | S100A7 expression ([1]; CTRL cells, replicate 4): 0.4855 | SLPI expression ([1]; CTRL cells, replicate 4): 0.7519 | Elafin expression ([1]; E6E7 cells, replicate 1): 0.006506 | HBD1 expression ([1]; E6E7 cells, replicate 1): 0.08614 | HBD2 expression ([1]; E6E7 cells, replicate 1): 2.123 | HBD3 expression ([1]; E6E7 cells, replicate 1): 0.6511 | HBD4 expression ([1]; E6E7 cells, replicate 1): 0.3771 | HD-5 expression ([1]; E6E7 cells, replicate 1): 0.1042 | HD-6 expression ([1]; E6E7 cells, replicate 1): 1.213 | S100A7 expression ([1]; E6E7 cells, replicate 1): 1.453e-5 | SLPI expression ([1]; E6E7 cells, replicate 1): 0.0293 | Elafin expression ([1]; E6E7 cells, replicate 2): 0.03758 | HBD1 expression ([1]; E6E7 cells, replicate 2): 0.1065 | HBD2 expression ([1]; E6E7 cells, replicate 2): 0.4899 | HBD3 expression ([1]; E6E7 cells, replicate 2): 2.311 | HBD4 expression ([1]; E6E7 cells, replicate 2): 0.789 | HD-5 expression ([1]; E6E7 cells, replicate 2): 1.126 | HD-6 expression ([1]; E6E7 cells, replicate 2): 0.08436 | S100A7 expression ([1]; E6E7 cells, replicate 2): 1.453e-5 | SLPI expression ([1]; E6E7 cells, replicate 2): 0.1199 | Elafin expression ([1]; E6E7 cells, replicate 3): 0.01347 | HBD1 expression ([1]; E6E7 cells, replicate 3): 0.06181 | HBD2 expression ([1]; E6E7 cells, replicate 3): 2.314 | HBD3 expression ([1]; E6E7 cells, replicate 3): 0.09282 | HBD4 expression ([1]; E6E7 cells, replicate 3): 1.611 | HD-5 expression ([1]; E6E7 cells, replicate 3): 0.8629 | HD-6 expression ([1]; E6E7 cells, replicate 3): 0.3418 | S100A7 expression ([1]; E6E7 cells, replicate 3): 8.731e-6 | SLPI expression ([1]; E6E7 cells, replicate 3): 0.005195 | Elafin expression ([1]; E6E7 cells, replicate 4): 0.01173 | HBD1 expression ([1]; E6E7 cells, replicate 4): 0.009073 | HBD2 expression ([1]; E6E7 cells, replicate 4): 0.5342 | HBD3 expression ([1]; E6E7 cells, replicate 4): 0.8751 | HBD4 expression ([1]; E6E7 cells, replicate 4): 0.9721 | HD-5 expression ([1]; E6E7 cells, replicate 4): 1.847 | HD-6 expression ([1]; E6E7 cells, replicate 4): 0.557 | S100A7 expression ([1]; E6E7 cells, replicate 4): 8.0162e-6 | SLPI expression ([1]; E6E7 cells, replicate 4): 0.029 | HβD2-4 expression (RT-qPCR) ([2]; immortalized keratinocytes, TNFα 20 ng/ml, normalized to HPRT, n = 4): highly stimulated | Elafin expression ([2]; replicate 1): 6.99 | HBD2 expression ([2]; replicate 1): 14.1 | HBD3 expression ([2]; replicate 1): 4.31 | HBD4 expression ([2]; replicate 1): 5.27 | Elafin expression ([2]; replicate 2): 3.11 | HBD2 expression ([2]; replicate 2): 7.45 | HBD3 expression ([2]; replicate 2): 7.5 | HBD4 expression ([2]; replicate 2): 1.23 | Elafin expression ([2]; replicate 3): 6.23 | HBD2 expression ([2]; replicate 3): 7.27 | HBD3 expression ([2]; replicate 3): 4.03 | HBD4 expression ([2]; replicate 3): 3.86

Cc1ccc(S(=O)(=O)/C=C/C#N)cc1 [BAY 11-7082, reference compound]
TNFα/LPS-induced defensin/elafin mRNA levels [2]: significant decrease

Reference: PMC8885657, “HPV infection alters vaginal microbiome through down-regulating host mucosal innate peptides used by Lactobacilli as amino acid sources” (Nature Communications, 2022)
